Experimental data as given in patent US11026943B2, “Aminoquinoline derivatives and uses thereof” (UNIVERSITY OF DELHI, priority 2012, dated 2021).

How the values were obtained:
6-OHDA-lesioned rats = assay: 6-OHDA-lesioned rat model of PD (amphetamine rotation, TH+ and Iba-1 counts); format: in vivo
Experimental: Cells were fixed in 4% paraformaldehyde (PFA) for 20 min, washed and then incubated with blocking buffer [PBS, 10% goat serum (Invitrogen), 0.3% Triton X-100 (Sigma)] for 1 hour. Cells were then incubated overnight at 4° C. with primary antibodies with the primary antibody in PBS containing 1% normal goat serum and 0.1% Triton X-100. A rabbit polyclonal anti-TH antibody (1:500; Pel-Freez, Rogers, Ark.) was used as a primary antibody. Following washes with PBS, appropriate fluorescence-tagged secondary antibodies (Jackson Immunoresearch Laboratories, West Grove, Pa.) were used for visualization. Stained samples were mounted in […] with DAPI mounting solution (Vector Laboratories INC., Burlingame, Calif.) and photographed using epifluorescence microscope (Leica). […] The tissues were washed three times in PBS and incubated for 2 h with the secondary fluorescence-conjugated goat anti-mouse and rabbit antibody (DAKO, Denmark, Cy3, FITC, both dilutions at 1:1,000) and tissues were washed and mounted in Vectorshield. […] Tissues were visualized using fluorescence microscopy. […] The protection percentage of total TH^+ cells in the lesioned hemisphere of each rat brain was calculated by dividing total TH^+ cells in the intact hemisphere of each rat brain and multiplying […]. […]

PC12 cells = assay: 6-OHDA toxicity in PC12 cells (MTT reduction assay); format: cell-based, rat
Experimental: Cell viabilities were determined by the conventional MTT reduction assay. After incubation for indicated times, cells were treated with the MTT solution (final concentration, 1 mg/ml, Sigma) for 1 h. Formazan grains formed in intact cells were solubilized with MTT Solubilization. Solution containing 10% Triton X-100 plus 0.1 N HCl in anhydrous isopropanol for 24 h and then absorbance at 570 nm was measured with a microplate reader (Molecular Devices, Menlo Park, Calif.).

[1] = tested on: neural precursor cells from E14 rat cortices; assay: In vitro differentiation of Nurr1-transduced neural precursor cells into TH+ DA neurons; format: cell-based
Experimental: Error bars represent standard deviations.
Neural precursor cells (NPCs) from dissection of rat embryos days 14 cortices (E14) were proliferated in N2 medium supplemented with 20 ng/mL basic fibroblast growth factor (bFGF; R&D Systems, Minneapolis, Minn., USA). Following 3-4 days of bFGF-expansion, NPCs were dissociated in Ca^2+/Mg^2+-free Hank's balanced salt solution (CMF-HBSS, Invitrogen, Carlsbad, Calif.) and re-plated onto coverslips (12 mm diameter; Carolina Biological Supply Company, Burlington, N.C.) at 32,000 cells/coverslip pre-coated with poly-L-ornithine (PLO; […], Sigma, St Louis, Mo.) at 37° C. overnight followed by fibronectin (FN; […], Sigma) overnight. Prior to drug treatment, NPCs were transduced with Nurr1-expressing retrovirus of MOI 5 in the presence of polybrene (1 μg/ml, Sigma), cultured overnight in N2, and then differentiated. Getting started chemical treatment (every day for 2 hours), bFGF was not added anymore^3.
Cells were fixed in 4% paraformaldehyde (PFA) for 20 min, washed and then incubated with blocking buffer [PBS, 10% goat serum (Invitrogen), 0.3% Triton X-100 (Sigma)] for 1 hour. […] Following washes with PBS, appropriate fluorescence-tagged secondary antibodies (Jackson Immunoresearch Laboratories, West Grove, Pa.) were used for visualization. […]

Nurr1 = target: T1, Nurr1 (Mus musculus, UniProt Q06219); assay: High-throughput cell-based screen of Nurr1-dependent TH promoter activation; conditions: library of 960 FDA-approved drugs
T1 construct: Full-length mouse Nurr1cDNA was amplified by RT-PCR from pSV40Nurr1; expressed in transfected cells; host or cells: SK-N-BE(2)C human neuroblastoma cells
T1 sequence (Q06219 whole entry): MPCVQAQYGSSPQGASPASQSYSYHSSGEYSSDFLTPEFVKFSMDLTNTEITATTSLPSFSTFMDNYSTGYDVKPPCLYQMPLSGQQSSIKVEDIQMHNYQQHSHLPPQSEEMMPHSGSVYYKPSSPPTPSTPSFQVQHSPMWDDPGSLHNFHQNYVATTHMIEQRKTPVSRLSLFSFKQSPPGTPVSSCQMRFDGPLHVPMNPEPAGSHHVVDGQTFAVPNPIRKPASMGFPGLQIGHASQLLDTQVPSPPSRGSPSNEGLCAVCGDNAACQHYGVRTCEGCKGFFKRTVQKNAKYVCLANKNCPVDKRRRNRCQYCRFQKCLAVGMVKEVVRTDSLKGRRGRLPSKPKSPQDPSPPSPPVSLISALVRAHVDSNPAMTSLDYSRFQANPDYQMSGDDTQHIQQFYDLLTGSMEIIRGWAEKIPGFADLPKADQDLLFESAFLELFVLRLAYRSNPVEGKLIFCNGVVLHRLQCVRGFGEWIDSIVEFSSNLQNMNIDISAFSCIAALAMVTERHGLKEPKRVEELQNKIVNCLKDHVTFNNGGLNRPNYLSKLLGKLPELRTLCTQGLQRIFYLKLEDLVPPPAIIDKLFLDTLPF

screen outcome (Nurr1): hit compounds
SMILES: CCN(CC)Cc1cc(Nc2ccnc3cc(Cl)ccc23)ccc1O [AQ, amodiaquine]
6-OHDA-induced (amphetamine) rotation behavior (6-OHDA-lesioned rats; 4 and 6 weeks post lesion, AQ 20 mg/kg i.p. twice per day, 2 weeks): significantly ameliorated | numbers of Iba-1+ microglia in ipsilateral SN and STR (6-OHDA-lesioned rats; after AQ treatment): decreased to the levels of the contralateral sides | neuroprotective effect in PC12 cells (PC12 cells): neuroprotective effect | number of TH+ neurons generated from neural stem cells [1]: enhanced | mRNA expression levels of TH, DAT, VMAT and AADC genes ([1]; in vitro differentiation for 9 d): enhanced
